In article PMC12951562, “SH2scan: Mapping SH2 Domain-Ligand Binding Selectivity for Inhibitors and Degraders” (Journal of Medicinal Chemistry, 2026):
Like-named read-outs stand apart in the source and are kept apart here. Non-standard residues stand in square brackets, D forms with d. Residues, ends and D or L forms follow the SMILES beside them. *: point of attachment. pY = N[C@@H](Cc1ccc(OP(=O)(O)O)cc1)C(=O)O; Caffeoyl = O=C(/C=C/c1ccc(O)c(O)c1)*

Columns and labels:
Format in all cases: binding
LCK = target: T1, LCK (Homo sapiens, UniProt P06239); test: biochemical; settings: for percent of DMSO vehicle control at 10 µM / remaining activity at 10 µM: read-out: percent of DMSO vehicle control; for remaining activity at 10 µM: primary screen
T1 construct: the DNA-tagged SH2 domain concentrations used in this study were <0.1 nM; made in house; host or cells: HEK293 (transient transfection, unpurified extract)

PLCG1(SH2dom.N-term.) = target: T2, PLCG1(SH2dom.N-term.) (Homo sapiens, UniProt P19174); test: biochemical; settings: for remaining activity at 10 µM: read-out: percent of DMSO vehicle control
T2 construct: SH2dom.N-term. denotes SH2 domain closest to N-terminus of protein; made in house; host or cells: HEK293 (transient transfection, unpurified extract)
T2 sequence (P19174 550-657 limits assumed): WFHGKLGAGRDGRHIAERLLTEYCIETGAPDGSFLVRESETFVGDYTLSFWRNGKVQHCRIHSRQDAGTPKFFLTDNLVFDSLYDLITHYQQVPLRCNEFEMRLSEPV

SHC4 = target: T3, SHC4 (Homo sapiens, UniProt Q6S5L8); test: biochemical; settings: for remaining activity at 10 µM: read-out: percent of DMSO vehicle control
T3 construct: made in house; host or cells: HEK293 (transient transfection), unpurified extract
T3 sequence (Q6S5L8 1-630): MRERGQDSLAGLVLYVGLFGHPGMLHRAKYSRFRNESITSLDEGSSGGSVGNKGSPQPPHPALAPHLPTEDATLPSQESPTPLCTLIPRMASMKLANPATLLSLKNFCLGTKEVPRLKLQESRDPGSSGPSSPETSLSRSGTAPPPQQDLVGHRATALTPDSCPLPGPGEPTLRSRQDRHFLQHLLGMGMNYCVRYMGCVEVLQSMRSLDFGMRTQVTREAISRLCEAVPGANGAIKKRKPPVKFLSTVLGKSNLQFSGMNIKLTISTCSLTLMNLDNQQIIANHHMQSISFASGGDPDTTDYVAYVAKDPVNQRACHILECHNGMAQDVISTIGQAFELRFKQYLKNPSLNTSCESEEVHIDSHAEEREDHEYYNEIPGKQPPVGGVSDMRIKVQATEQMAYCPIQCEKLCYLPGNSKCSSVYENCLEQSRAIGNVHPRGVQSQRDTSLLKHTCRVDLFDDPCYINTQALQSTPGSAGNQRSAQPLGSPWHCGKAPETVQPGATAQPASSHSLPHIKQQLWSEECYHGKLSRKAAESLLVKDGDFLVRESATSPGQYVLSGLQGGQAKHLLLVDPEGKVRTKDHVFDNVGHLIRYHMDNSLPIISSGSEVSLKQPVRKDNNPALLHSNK

CISH = target: T4, CISH (Homo sapiens, UniProt Q9NSE2); test: biochemical; settings: for remaining activity at 10 µM: read-out: percent of DMSO vehicle control
T4 construct: the DNA-tagged SH2 domain concentrations used in this study were <0.1 nM; made in house; host or cells: HEK293 (transient transfection; unpurified extract)
T4 sequence (Q9NSE2 82-163 limits assumed): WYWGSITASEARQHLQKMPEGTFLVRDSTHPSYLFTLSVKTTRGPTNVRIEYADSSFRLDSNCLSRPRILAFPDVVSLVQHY

PTPN11(SH2dom.C-term.) = target: T5, PTPN11(SH2dom.C-term.) (Homo sapiens, UniProt Q06124); test: biochemical; settings: for percent of DMSO vehicle control: primary screen, 10 μM
T5 construct: SH2dom.C-term. denotes SH2 domain closest to C-terminus of protein; made in house; host or cells: HEK293 (transient transfection, unpurified extract)
T5 sequence (Q06124 112-216 limits assumed): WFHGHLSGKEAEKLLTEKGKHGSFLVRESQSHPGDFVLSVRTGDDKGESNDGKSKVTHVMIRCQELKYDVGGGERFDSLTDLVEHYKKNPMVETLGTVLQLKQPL

PTPN11(SH2dom.N-term.) = target: T6, PTPN11(SH2dom.N-term.) (Homo sapiens, UniProt Q06124); settings: primary screen, 10 μM
T6 construct: SH2dom.N-term. denotes SH2 domain closest to N-terminus of protein; made in house; host or cells: HEK293 (transient transfection, unpurified extract)
T6 sequence (Q06124 6-102 limits assumed): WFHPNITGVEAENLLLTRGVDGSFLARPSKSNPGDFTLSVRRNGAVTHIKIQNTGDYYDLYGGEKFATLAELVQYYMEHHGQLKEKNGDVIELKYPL

STAT3 = target: T7, STAT3 (Homo sapiens, UniProt P40763); test: biochemical; settings: for percent of DMSO vehicle control at 10 µM / remaining activity at 10 µM: read-out: percent of DMSO vehicle control; for remaining activity at 10 µM: primary screen
T7 construct: made in house; host or cells: HEK293 (transient transfection), unpurified extract

[1] = target: T8, STAT3(D661Y)-nonphosphorylated (Homo sapiens, UniProt P40763, D661Y); test: biochemical; settings: for percent of DMSO vehicle control at 10 µM / remaining activity at 10 µM: read-out: percent of DMSO vehicle control; for remaining activity at 10 µM: primary screen
T8 construct: made in house; host or cells: HEK293 (transient transfection), unpurified extract, dephosphorylated by endogenous phosphatases

[2] = target: T9, STAT3(E616del)-nonphosphorylated (Homo sapiens, UniProt P40763, DEL616-616); test: biochemical; settings: for percent of DMSO vehicle control at 10 µM / remaining activity at 10 µM: read-out: percent of DMSO vehicle control; for remaining activity at 10 µM: primary screen
T9 construct: made in house; host or cells: HEK293 (transient transfection), unpurified extract, dephosphorylated by endogenous phosphatases

[3] = target: T10, STAT3(N567K)-nonphosphorylated (Homo sapiens, UniProt P40763, N567K); test: biochemical; settings: for percent of DMSO vehicle control at 10 µM / remaining activity at 10 µM: read-out: percent of DMSO vehicle control; for remaining activity at 10 µM: primary screen
T10 construct: made in house; host or cells: HEK293 (transient transfection), unpurified extract, dephosphorylated by endogenous phosphatases

[4] = target: T11, STAT3(N647I)-nonphosphorylated (Homo sapiens, UniProt P40763, N647I); test: biochemical; settings: for percent of DMSO vehicle control at 10 µM / remaining activity at 10 µM: read-out: percent of DMSO vehicle control; for remaining activity at 10 µM: primary screen
T11 construct: made in house; host or cells: HEK293 (transient transfection), unpurified extract, dephosphorylated by endogenous phosphatases

[5] = target: T12, STAT3(S614R)-nonphosphorylated (Homo sapiens, UniProt P40763, S614R); test: biochemical; settings: for percent of DMSO vehicle control at 10 µM / remaining activity at 10 µM: read-out: percent of DMSO vehicle control; for remaining activity at 10 µM: primary screen
T12 construct: made in house; host or cells: HEK293 (transient transfection), unpurified extract, dephosphorylated by endogenous phosphatases

STAT5A = target: T13, STAT5A (Homo sapiens, UniProt P42229); test: biochemical; settings: for percent of DMSO vehicle control at 10 µM / remaining activity at 10 µM: read-out: percent of DMSO vehicle control; for remaining activity at 10 µM: primary screen
T13 construct: made in house; host or cells: HEK293 (transient transfection), unpurified extract
T13 sequence (P42229 1-794): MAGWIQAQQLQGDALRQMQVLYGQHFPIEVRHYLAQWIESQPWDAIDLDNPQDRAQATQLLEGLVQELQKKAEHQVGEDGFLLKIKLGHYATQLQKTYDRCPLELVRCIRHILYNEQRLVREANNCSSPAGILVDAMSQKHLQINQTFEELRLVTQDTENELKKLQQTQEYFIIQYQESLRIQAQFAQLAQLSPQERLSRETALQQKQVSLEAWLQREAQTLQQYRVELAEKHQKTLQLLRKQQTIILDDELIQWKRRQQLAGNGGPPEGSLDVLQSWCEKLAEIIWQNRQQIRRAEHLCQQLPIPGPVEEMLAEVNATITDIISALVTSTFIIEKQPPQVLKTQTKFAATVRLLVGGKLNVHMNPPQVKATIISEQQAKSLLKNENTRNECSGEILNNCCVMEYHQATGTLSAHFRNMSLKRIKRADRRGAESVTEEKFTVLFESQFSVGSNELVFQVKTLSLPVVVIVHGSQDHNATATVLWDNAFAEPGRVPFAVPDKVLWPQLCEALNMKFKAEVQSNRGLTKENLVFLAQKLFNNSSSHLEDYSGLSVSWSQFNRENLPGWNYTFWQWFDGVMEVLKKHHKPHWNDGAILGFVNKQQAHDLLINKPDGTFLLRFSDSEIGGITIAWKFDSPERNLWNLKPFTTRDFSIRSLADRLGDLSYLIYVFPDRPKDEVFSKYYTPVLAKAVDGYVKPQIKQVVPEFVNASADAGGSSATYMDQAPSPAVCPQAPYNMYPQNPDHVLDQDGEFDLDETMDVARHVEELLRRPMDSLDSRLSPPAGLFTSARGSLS

SMILES | percent of DMSO vehicle control at 10 µM (LCK) | remaining activity at 10 µM (PLCG1(SH2dom.N-term.)) | remaining activity at 10 µM (SHC4) | remaining activity at 10 µM (CISH) | percent of DMSO vehicle control (PTPN11(SH2dom.C-term.)) | percent of DMSO vehicle control (PTPN11(SH2dom.N-term.)) | percent of DMSO vehicle control at 10 µM (STAT3) | percent of DMSO vehicle control at 10 µM [1] | percent of DMSO vehicle control at 10 µM [2] | percent of DMSO vehicle control at 10 µM [3] | percent of DMSO vehicle control at 10 µM [4] | percent of DMSO vehicle control at 10 µM [5] | Kd (STAT5A) | percent of DMSO vehicle control at 10 µM (STAT5A) | remaining activity at 10 µM (LCK) | remaining activity at 10 µM (PLCG1(SH2dom.N-term.); primary screen, 10 μM) | remaining activity at 10 µM (SHC4; primary screen, 10 μM) | Kd (CISH; dose-response, read-out: KD) | remaining activity at 10 µM (CISH; primary screen, 10 μM) | remaining activity at 10 µM (STAT3) | also measured
CC(=O)N1CC[C@H]2CC[C@@H](C(=O)N[C@@H](CCC(N)=O)C(=O)NC(c3ccccc3)c3ccccc3)N2C(=O)[C@@H](NC(=O)c2cc3cc(C(F)(F)P(=O)(O)O)ccc3[nH]2)C1 [SI-109] | 127% | 130% | 136% | 102% | 136.9% | 109.2% | 0.4 ± 0.1% | 0.6 ± 0.2% | 0.1% | 0.2% | 0.5 ± 0.1% | 0.1% | 7030 ± 2200 nM | 101% |  |  |  |  |  |  | Kd (STAT3): 15 nM; Kd [1]: 21 ± 6.8 nM; Kd [2]: 8.7 ± 3.4 nM; Kd [3]: 12 ± 1.8 nM; Kd [4]: 25 ± 8.3 nM; Kd [5]: 5 ± 0.56 nM
CC[C@H](C)[C@H](NC(=O)[C@H](CCC(=O)O)NC(=O)[C@H](CCC(=O)O)NC(=O)[C@H](Cc1ccc(OP(=O)(O)O)cc1)NC(=O)/C=C/c1ccc(O)c(O)c1)C(=O)N[C@@H](CCC(=O)O)C(=O)O [Caffeic acid-pYEEIE] (Caffeoyl-[pY]EEIE-OH) | 0% | 0.3% | 0% | 4.9 ± 6.9% | 72.6±1.1% | 92.8±10.0% | 102 ± 22.8% | 108 ± 9.3% | 85.5 ± 0.3% | 91 ± 2.3% | 85.3 ± 2.1% | 81.4 ± 6.7% | 4020 ± 1500 nM | 6.2 ± 0.4% |  |  |  |  |  |  | Kd (LCK): 3.7 ± 0.62 nM; Kd (PLCG1(SH2dom.N-term.)): 180 ± 200 nM; Kd (SHC4): 39 ± 6.1 nM; Kd (CISH): 430 ± 980 nM
O=C(COc1ccc2cc(C(=O)Nc3ccccc3)ccc2c1)NCc1ccc(OP(=O)(O)O)c(OP(=O)(O)O)c1 [Stafib-1] |  |  |  |  | 99.1±12.9% | 79.2±4.6% |  |  |  |  |  |  |  |  | 97.4 ± 7.6% | 82.6 ± 20.2% | 103% | 3900 ± 8500 nM | 1.7 ± 2.3% | 66.9 ± 10% | remaining activity at 10 µM [1]: 157%; remaining activity at 10 µM [2]: 135%; remaining activity at 10 µM [3]: 97.5 ± 16.8%; remaining activity at 10 µM [4]: 78.6 ± 15.4%; remaining activity at 10 µM [5]: 87.4 ± 4.6%; remaining activity at 10 µM (STAT5A): 22 ± 26.6%
C/C(=C\C(=O)N[C@H](C(=O)N1CCC[C@H]1C(=O)N(c1ccccc1)c1ccc(I)cc1)C(C)(C)C)c1ccc(OP(=O)(O)O)cc1 [STAT6-IN-1] |  |  |  |  | 2.1±0.9% | 76.7±1.3% |  |  |  |  |  |  |  |  | 48.3 ± 1.3% | 0.3 ± 0.1% | 77.1 ± 7.5% | 3600 ± 640 nM | 1.6 ± 2.3% | 0% | Kd (PLCG1(SH2dom.N-term.); dose-response, read-out: KD): 890 ± 720 nM; Kd (PTPN11(SH2dom.C-term.); dose-response, read-out: KD): 1060 ± 350 nM; Kd (STAT3; dose-response, read-out: KD): 180 ± 0.01 nM; Kd ([1]; dose-response, read-out: KD): 1000 ± 800 nM; remaining activity at 10 µM [1]: 0%; Kd ([2]; dose-response, read-out: KD): 140 ± 35 nM; remaining activity at 10 µM [2]: 0%; Kd ([3]; dose-response, read-out: KD): 190 ± 107 nM; remaining activity at 10 µM [3]: 0%; Kd ([4]; dose-response, read-out: KD): 800 ± 120 nM; remaining activity at 10 µM [4]: 0%; Kd ([5]; dose-response, read-out: KD): 88 ± 31 nM; remaining activity at 10 µM [5]: 0%; Kd (STAT5A; dose-response, read-out: KD): 9.1 ± 4.3 nM; remaining activity at 10 µM (STAT5A): 0%
